Results: PubChem BioAssay (NCI)
Values joined by “and” are separate entries in the source; they are usually repeats but may differ in a detail not shown here. Equal values may be shown once.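 Growth conditions: 96-well plates. Treatment: test compound, 48 hours, 5 concentrations. Analysis: linear interpolation between bracketing concentrations; unreached endpoints set to highest concentration. GI50: concentration for 50% inhibition of growth. TGI denotes the concentration required for complete inhibition of growth.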

Tests used:
Test in all cases: NCI anticancer screen, dose series, 48 h
HL-60(TB) leukemia = tested on: HL-60(TB) leukemia
EKVX NSCLC = tested on: EKVX NSCLC
K-562 leukemia = tested on: K-562 leukemia
SW-620 colon = tested on: SW-620 colon
RPMI-8226 leukemia = tested on: RPMI-8226 leukemia
SK-MEL-28 melanoma = tested on: SK-MEL-28 melanoma
SNB-75 CNS = tested on: SNB-75 CNS
HT29 colon = tested on: HT29 colon
NCI/ADR-RES ovarian = tested on: NCI/ADR-RES ovarian
A549 NSCLC = tested on: A549 NSCLC
CAKI-1 renal = tested on: CAKI-1 renal
COLO 205 colon = tested on: COLO 205 colon
MALME-3M melanoma = tested on: MALME-3M melanoma
U251 CNS = tested on: U251 CNS
UACC-257 melanoma = tested on: UACC-257 melanoma
UO-31 renal = tested on: UO-31 renal
ACHN renal = tested on: ACHN renal
OVCAR-8 ovarian = tested on: OVCAR-8 ovarian
TK-10 renal = tested on: TK-10 renal

Compound	TGI (HL-60(TB) leukemia)	TGI (EKVX NSCLC) [µM]	TGI (K-562 leukemia) [µM]	TGI (SW-620 colon) [µM]	TGI (RPMI-8226 leukemia) [µM]	TGI (SK-MEL-28 melanoma)	TGI (SNB-75 CNS) [µM]	TGI (HT29 colon) [µM]	TGI (NCI/ADR-RES ovarian) [µM]	TGI (A549 NSCLC) [µM]	TGI (CAKI-1 renal) [µM]	TGI (COLO 205 colon) [µM]	TGI (MALME-3M melanoma)	TGI (U251 CNS) [µM]	TGI (UACC-257 melanoma) [µM]	TGI (UO-31 renal)	TGI (ACHN renal) [µM]	TGI (OVCAR-8 ovarian) [µM]	TGI (TK-10 renal) [µM]	GI50 (HL-60(TB) leukemia)
Cc1cc2sc(C)[n+](CCCOS(=O)(=O)[O-])c2cc1C	> 100 µM	> 100	> 100	> 100	> 100	> 100 µM	> 100	> 100	> 100	> 100	> 100	> 100	> 100 µM	> 100	> 100	> 100 µM	> 100	> 100	> 100	–
CC(C)(C)C(=O)CP(=O)(O)O	> 100 µM	> 100	> 100	> 100	> 100	> 100 µM	> 100	> 100	> 100	> 100	> 100	> 100	> 100 µM	> 100	> 100	–	> 100	> 100	> 100	–
N=[N+]=CC(=O)CCC(NC(=O)C(CCC(=O)C=[N+]=N)NC(=O)CCC(N)C(=O)O)C(=O)O (stereo not drawn)	> 100 µM	> 100	> 100	> 100	> 100	> 100 µM	> 100	> 100	> 100	> 100	> 100	> 100	> 100 µM	> 100	> 100	> 100 µM	–	> 100	–	–
Nc1c(C(=O)Nc2ccc(C3=NCCN3)cc2)cccc1C(=O)Nc1ccc(C2=NCCN2)cc1	> 100 µM	–	> 100	> 100	> 100	> 100 µM	> 100	> 100	> 100	> 100	> 100	> 100	> 100 µM	> 100	> 100	> 100 µM	–	> 100	–	–
C[n+]1ccc(Nc2ccc(NC(=O)c3ccc(Nc4cc[n+](C)c5ccc([N+](=O)[O-])cc45)cc3[N+](=O)[O-])cc2)cc1	> 47.7 µM and 69.9 µM	> 92.6	> 77.6	> 100	> 100	74.1 µM and 62.2 µM	> 100	> 100	> 100	> 100	> 100	> 100	61.2 µM and 53.9 µM	> 84.6	> 100	98.9 µM and > 79.4 µM	> 100	> 100	> 100	4.7 µM and 10.3 µM
Cc1ccc(N=Nc2ccc(N)cc2C)c(S(N)(=O)=O)c1	> 100 µM	> 100	> 100	> 100	> 100	> 100 µM	> 100	> 100	> 100	> 100	> 100	> 100	> 100 µM	> 100	> 100	> 100 µM	> 100	> 100	> 100	–
COC(=O)c1cc2cc3c(c(O)c2c(=O)o1)O[C@@]1(Oc2c(O)c4c(c(O)c2[C@H]1OC1CC(OC)C(O)C(C)O1)C(=O)C=C(OC)C4=O)[C@H](O)C3 (stereo partly drawn)	3.39 µM	12.3	8.82	> 39.8	4.44	1.91 µM	–	> 20.3	> 100	–	3.2	14.1	–	–	14.1	> 30.4 µM	9.19	10.7	17.5	–
C/C=C(\C)C(=O)OC1C(C)=C2C(C1OC(=O)CCCC)C(C)(OC(C)=O)CC(OC(=O)CCCC)C1(O)C2OC(=O)C1(C)O (stereo not drawn)	> 100 µM	> 100	> 100	–	> 21.1	> 100 µM	48.6	9.72	> 100	> 100	> 92.2	2.58	–	> 100	> 100	71.2 µM	> 100	> 100	> 100	–
C/C(=N\NC(=S)N1CCN(C)CC1)c1nc2ncccc2[nH]1	> 100 µM	> 100	> 100	> 100	> 100	> 100 µM	> 100	> 100	> 100	> 100	> 100	> 100	> 100 µM	> 100	> 100	> 100 µM	> 100	> 100	> 100	–
CN(Cc1cccc2ccccc12)Cc1cccc2ccccc12	33.4 µM	> 100	> 100	57.9	50.1	> 100 µM	> 100	> 100	> 100	> 100	> 100	35.2	63.4 µM	49.6	> 100	> 100 µM	> 100	> 100	> 100	–
O=C(O)NCC1CCCCC1 (tested in a mixture with another compound)	38.5 µM	> 100	35.9	52.4	9.73	> 100 µM	36.6	66.6	83.8	> 100	> 100	–	7.15 µM	20.3	63.2	> 100 µM	48.1	31.7	> 100	–
CC(C)(C)NCC(O)c1ccc(O)c(CO)n1 (stereo not drawn)	> 100 µM	> 100	–	> 100	> 100	> 100 µM	> 100	> 100	> 100	> 100	> 100	> 100	–	> 100	> 100	> 100 µM	> 100	> 100	> 100	–
OC(c1cc(-c2ccc(Cl)cc2)nc2ccccc12)C1CCCCN1 (stereo not drawn)	4.61 µM	4.74	3.13	3.69	3.12	3.53 µM	–	3.82	5.79	3.53	6.44	3.19	2.94 µM	3.25	9.71	2.45 µM	4.1	5.28	9.85	–
C1CSC(=[N+]2CC[N+](=C3SCCS3)CC2)S1	> 100 µM	> 100	> 100	> 100	> 100	> 100 µM	> 100	> 100	–	> 100	> 100	> 100	> 100 µM	> 100	> 100	> 100 µM	> 100	> 100	> 100	–
O=C(NC1C=Nc2ccc([N+](=O)[O-])cc2NC1=O)c1cc(Cl)cc([N+](=O)[O-])c1 (stereo not drawn)	> 100 µM	> 100	> 100	> 100	> 100	> 100 µM	> 100	> 100	–	> 100	> 100	> 100	–	> 100	> 100	> 100 µM	> 100	> 100	> 100	–
Oc1ccc(Cc2nccc3cc(O)c(O)cc23)cc1O	> 100 µM	> 100	> 100	> 100	> 100	> 100 µM	> 100	> 100	> 100	> 100	> 100	51.3	> 100 µM	> 100	87.6	> 100 µM	> 100	> 100	> 100	–
C[n+]1c2ccccc2c(NC(CS)C(=O)O)c2ccccc21 (stereo not drawn)	44.8 µM	> 100	> 100	> 100	53.9	–	73.5	> 100	–	70.1	97.2	> 100	> 100 µM	89.4	92.9	66.6 µM	> 100	61.2	> 100	–
